Where two headings read alike, the source gives them in different places.
How the values were obtained:
Type in all cases: biochemical
Pim1 kinase = Pim1 kinase (Homo sapiens, UniProt P11309); assay: Pim1 ATP depletion assay;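 further: Luciferase-luciferin luminescence readout of residual ATP after PIM1 transfers phosphate to a peptide substrate, 40 µM ATP added, reaction run to roughly half ATP consumption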
Pim2 kinase = Pim2 kinase (Homo sapiens, UniProt Q9P1W9); assay: Pim2 ATP depletion assay;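 further: Luciferase-based luminescent readout of ATP remaining after PIM2 phosphorylates a BAD peptide, final 5 nM enzyme, 4 µM ATP, 10 µM peptide, 2.5% DMSO, run to roughly half ATP consumption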
Pim3 kinase = Pim3 kinase (Homo sapiens, UniProt Q86V86); assay: Pim3 ATP depletion assay
[1] = Pim1 ATP depletion assay, read-out: PIM1 IC50
[2] = Pim1 ATP depletion assay, read-out: IC50 (μM) PIM1

Pim1 kinase, sequence (P11309 whole entry): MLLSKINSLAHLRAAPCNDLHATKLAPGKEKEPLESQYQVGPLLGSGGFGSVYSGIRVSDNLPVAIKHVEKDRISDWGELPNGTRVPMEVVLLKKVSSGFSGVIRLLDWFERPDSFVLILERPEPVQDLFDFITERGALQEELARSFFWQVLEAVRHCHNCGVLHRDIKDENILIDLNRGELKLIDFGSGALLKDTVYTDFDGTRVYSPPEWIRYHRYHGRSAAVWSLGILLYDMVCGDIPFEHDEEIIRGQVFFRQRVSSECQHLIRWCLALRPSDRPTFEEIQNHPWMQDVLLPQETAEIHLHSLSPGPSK
Pim2 kinase, sequence (Q9P1W9 whole entry): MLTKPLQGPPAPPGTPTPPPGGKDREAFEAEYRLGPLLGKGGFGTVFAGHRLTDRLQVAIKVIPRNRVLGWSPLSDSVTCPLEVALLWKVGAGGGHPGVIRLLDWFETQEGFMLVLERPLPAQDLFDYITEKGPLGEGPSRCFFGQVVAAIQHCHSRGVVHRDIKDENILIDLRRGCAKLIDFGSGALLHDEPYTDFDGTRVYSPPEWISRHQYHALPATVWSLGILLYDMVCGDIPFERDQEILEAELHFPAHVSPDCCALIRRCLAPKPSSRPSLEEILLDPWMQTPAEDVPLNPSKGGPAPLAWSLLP

Nc1ccc(-c2ccccc2F)nc1C(=O)Nc1cnccc1N1CCC[C@@H](O)C1 [Example 659, 3-Amino-6-(2-fluoro-phenyl)-pyridine-2-carboxylic acid (3-hydroxy-3,4,5,6-tetrahydro-2H-[1,4′]bipyridinyl-3′-yl)-amide]
IC50 (Pim1 kinase; [1]): < 1 µM
IC50 (Pim2 kinase; read-out: PIM2 IC50): < 1 µM
IC50 (Pim3 kinase; read-out: PIM3 IC50): < 1 µM

CC(C)c1cccc(-c2ccc(N)c(C(=O)Nc3cnccc3N3CCC[C@H](N)C3)n2)c1 [Example 456, 3-Amino-6-(3-isopropyl-phenyl)-pyridine-2-carboxylic acid (3-amino-3,4,5,6-tetrahydro-2H-[1,4′]bipyridinyl-3′-yl)-amide]
IC50 (Pim1 kinase; [2]): < 1 µM
IC50 (Pim2 kinase; read-out: IC50 (μM) PIM2): < 1 µM
IC50 (Pim3 kinase; read-out: IC50 (μM) PIM3): < 1 µM

CC(C)NC(=O)c1ccc(F)c(-c2ccc(F)c(C(=O)Nc3cnccc3N3CCC[C@H](N)C3)n2)c1 [Example 569, 3-Fluoro-6-(2-fluoro-5-isopropylcarbamoyl-phenyl)-pyridine-2-carboxylic acid (3-amino-3,4,5,6-tetrahydro-2H-[1,4′]bipyridinyl-3′-yl)-amide]
IC50 (Pim1 kinase; [1]): < 1 µM
IC50 (Pim2 kinase; read-out: PIM2 IC50): < 1 µM
IC50 (Pim3 kinase; read-out: PIM3 IC50): < 1 µM

N#Cc1cccc(-c2ccc(N)c(C(=O)Nc3cnccc3N3CCC[C@H](N)C3)n2)c1 [Example 461, 3-Amino-6-(3-cyano-phenyl)-pyridine-2-carboxylic acid (3-amino-3,4,5,6-tetrahydro-2H-[1,4′]bipyridinyl-3′-yl)-amide]
IC50 (Pim1 kinase; [2]): < 1 µM
IC50 (Pim2 kinase; read-out: IC50 (μM) PIM2): < 1 µM
IC50 (Pim3 kinase; read-out: IC50 (μM) PIM3): < 1 µM

Cc1cc(-c2ccncc2NC(=O)c2nc(-c3c(F)cccc3F)c(F)cc2N)cc(N)n1 [Example 619, 3-amino-N-(2′-amino-6′-methyl-4,4′-bipyridin-3-yl)-6-(2,6-difluorophenyl)-5-fluoropyridine-2-carboxamide]
IC50 (Pim1 kinase; [1]): < 1 µM
IC50 (Pim2 kinase; read-out: PIM2 IC50): < 1 µM
IC50 (Pim3 kinase; read-out: PIM3 IC50): < 1 µM

Nc1ccc(-c2cccc(Cl)n2)nc1C(=O)Nc1cnccc1N1CCC[C@H](N)C1 [Example 710, 5-Amino-6′-chloro-[2,2′]bi-pyridinyl-6-carboxylic acid (3-amino-3,4,5,6-tetrahydro-2H-[1,4′]bipyridinyl-3′-yl)-amide]
IC50 (Pim1 kinase; [1]): < 1 µM
IC50 (Pim2 kinase; read-out: PIM2 IC50): < 1 µM
IC50 (Pim3 kinase; read-out: PIM3 IC50): < 1 µM

Nc1cc(-c2ccncc2NC(=O)c2cccc(-c3ccc(F)cc3F)n2)nc(C(F)(F)F)n1 [Example 527, 6-(2,4-Difluoro-phenyl)-pyridine-2-carboxylic acid [4-(6-amino-2-trifluoromethyl-pyrimidin-4-yl)-pyridin-3-yl]-amide]
IC50 (Pim1 kinase; [2]): < 1 µM
IC50 (Pim2 kinase; read-out: IC50 (μM) PIM2): < 1 µM
IC50 (Pim3 kinase; read-out: IC50 (μM) PIM3): < 1 µM

CC(C)Oc1ccc(F)c(-c2ccc(N)c(C(=O)Nc3cnccc3N3CCC[C@H](N)C3)n2)c1F [Example 488, 3-Amino-6-(2,6-difIuoro-3-isopropoxy-phenyl)-pyridine-2-carboxylic acid (3-amino-3,4,5,6-tetrahydro-2H-[1,4′]bipyridinyl-3′-yl)-amide]
IC50 (Pim1 kinase; [2]): < 1 µM
IC50 (Pim2 kinase; read-out: IC50 (μM) PIM2): < 1 µM
IC50 (Pim3 kinase; read-out: IC50 (μM) PIM3): < 1 µM

CCCOc1ccc(F)c(-c2ccc(N)c(C(=O)Nc3cnccc3N3CCC[C@H](N)C3)n2)c1 [Example 468, 3-Amino-6-(2-fluoro-5-propoxy-phenyl)-pyridine-2-carboxylic acid (3-amino-3,4,5,6-tetrahydro-2H-[1,4′]bipyridinyl-3′-yl)-amide]
IC50 (Pim1 kinase; [2]): < 1 µM
IC50 (Pim2 kinase; read-out: IC50 (μM) PIM2): < 1 µM
IC50 (Pim3 kinase; read-out: IC50 (μM) PIM3): < 1 µM

Nc1ccc(-c2cccc(F)n2)nc1C(=O)Nc1cnccc1N1CCC[C@H](N)C1 [Example 712, 5-Amino-6′-fluoro-[2,2′]bi-pyridinyl-6-carboxylic acid (3-amino-3,4,5,6-tetrahydro-2H-[1,4′]bipyridinyl-3′-yl)-amide]
IC50 (Pim1 kinase; [1]): < 1 µM
IC50 (Pim2 kinase; read-out: PIM2 IC50): < 1 µM
IC50 (Pim3 kinase; read-out: PIM3 IC50): < 1 µM

Nc1ccc(-c2c(F)cccc2F)nc1C(=O)Nc1cnccc1N1CC[C@H](O)[C@@H](N)C1 [Example 680, 3-Amino-6-(2,6-difluoro-phenyl)-pyridine-2-carboxylic acid (3-amino-4-hydroxy-3,4,5,6-tetrahydro-2H-[1,4′]bi-pyridinyl-3′-yl)-amide]
IC50 (Pim1 kinase): < 1 µM
IC50 (Pim2 kinase; read-out: PIM2 IC50): < 1 µM
IC50 (Pim3 kinase; read-out: PIM3 IC50): < 1 µM

Cc1cc(-c2ccncc2NC(=O)c2nc(-c3cc(C(=O)N(C)C)ccc3F)ccc2N)nc(N)n1 [Example 564, 3-Amino-6-(5-dimethylcarbamoyl-2-fluoro-phenyl)-pyridine-2-carboxylic acid [4-(2-amino-6-methyl-pyrimidin-4-yl)-pyridin-3-yl]-amide]
IC50 (Pim1 kinase; [1]): < 1 µM
IC50 (Pim2 kinase; read-out: PIM2 IC50): < 1 µM
IC50 (Pim3 kinase; read-out: PIM3 IC50): < 1 µM

Nc1cc(-c2ccncc2NC(=O)c2cccc(-c3ccc(N4CCNCC4)cc3)n2)nc(C(F)(F)F)n1 [Example 525, 6-(4-Piperazin-1-yl-phenyl)-pyridine-2-carboxylic acid [4-(6-amino-2-trifluoromethyl-pyrimidin-4-yl)-pyridin-3-yl]-amide]
IC50 (Pim1 kinase; [2]): < 1 µM
IC50 (Pim2 kinase; read-out: IC50 (μM) PIM2): < 1 µM
IC50 (Pim3 kinase; read-out: IC50 (μM) PIM3): < 1 µM

Nc1ncccc1C(=O)Nc1cnccc1N1CCCC(N)C1 (stereo not drawn) [Example 200, 2-amino-N-[4-(3-aminopiperidin-1-yl)pyridin-3-yl]nicotinamide]
IC50 (Pim1 kinase; [2]): 10 to 25 µM
IC50 (Pim2 kinase; read-out: IC50 (μM) PIM2): > 25 µM
IC50 (Pim3 kinase; read-out: IC50 (μM) PIM3): > 25 µM

CCCOc1cncc(-c2ccc(N)c(C(=O)Nc3cnccc3N3CCC[C@H](N)C3)n2)n1 [Example 747, 3-Amino-6-(6-propoxy-pyrazin-2-yl)-pyridine-2-carboxylic acid (3-amino-3,4,5,6-tetrahydro-2H-[1,4′]bipyridinyl-3′-yl)-amide]
IC50 (Pim1 kinase; [1]): < 1 µM
IC50 (Pim2 kinase; read-out: PIM2 IC50): < 1 µM
IC50 (Pim3 kinase; read-out: PIM3 IC50): < 1 µM

COc1ncccc1-c1ccncc1NC(=O)c1nc(-c2ccccc2F)ccc1N [Example 611, 3-amino-6-(2-fluorophenyl)-N-(2-methoxy-3,4′-bipyridin-3′-yl)pyridine-2-carboxamide]
IC50 (Pim1 kinase; [1]): < 1 µM
IC50 (Pim2 kinase; read-out: PIM2 IC50): < 1 µM
IC50 (Pim3 kinase; read-out: PIM3 IC50): < 1 µM

Nc1ccc(-c2cccc(C(F)(F)F)c2)nc1C(=O)Nc1cnccc1N1CCC[C@H](N)C1 [Example 460, 3-Amino-6-(3-trifluoromethyl-phenyl)-pyridine-2-carboxylic acid (3-amino-3,4,5,6-tetrahydro-2H-[1,4′]bipyridinyl-3′-yl)-amide]
IC50 (Pim1 kinase; [2]): < 1 µM
IC50 (Pim2 kinase; read-out: IC50 (μM) PIM2): < 1 µM
IC50 (Pim3 kinase; read-out: IC50 (μM) PIM3): < 1 µM

Nc1ncc(-c2ccc(N)c(C(=O)Nc3cnccc3N3CCC[C@H](N)C3)n2)c(N)n1 [Example 417, 3-amino-6-(2,4-diamino-pyrimidin-5-yl)-pyridine-2-carboxylic acid ((S)-3-amino-3,4,5,6-tetrahydro-2H-[1,4′]bi-pyridinyl-3′-yl)-amide]
IC50 (Pim1 kinase; [2]): < 1 µM
IC50 (Pim2 kinase; read-out: IC50 (μM) PIM2): < 1 µM
IC50 (Pim3 kinase; read-out: IC50 (μM) PIM3): < 1 µM

Nc1cc(-c2ccncc2NC(=O)c2nc(-c3ccc(CN4CCOCC4)cc3)ccc2N)nc(C(F)(F)F)n1 [Example 572, 3-Amino-6-(4-morpholin-4-ylmethyl-phenyl)-pyridine-2-carboxylic acid [4-(6-amino-2-trifluoromethyl-pyrimidin-4-yl)-pyridin-3-yl]-amide]
IC50 (Pim1 kinase; [1]): < 1 µM
IC50 (Pim2 kinase; read-out: PIM2 IC50): < 1 µM
IC50 (Pim3 kinase; read-out: PIM3 IC50): < 1 µM

Cc1csc(-c2ccc(N)c(C(=O)Nc3cnccc3-c3cc(N)nc(C)n3)n2)c1 [Example 556, 3-Amino-6-(4-methyl-thiophen-2-yl)-pyridine-2-carboxylic acid [4-(6-amino-2-methyl-pyrimidin-4-yl)-pyridin-3-yl]-amide]
IC50 (Pim1 kinase; [1]): < 1 µM
IC50 (Pim2 kinase; read-out: PIM2 IC50): < 1 µM
IC50 (Pim3 kinase; read-out: PIM3 IC50): < 1 µM

COc1ccccc1-c1ncc(N)c(C(=O)Nc2cnccc2N2CCC[C@H](N)C2)n1 [Example 551, 5-Amino-2-(2-methoxy-phenyl)-pyrimidine-4-carboxylic acid (3-amino-3,4,5,6-tetrahydro-2H-[1,4′]bipyridinyl-3′-yl)-amide]
IC50 (Pim1 kinase; [1]): < 1 µM
IC50 (Pim2 kinase; read-out: PIM2 IC50): < 1 µM
IC50 (Pim3 kinase; read-out: PIM3 IC50): < 1 µM

Nc1ccc(-c2c(F)cccc2F)nc1C(=O)Nc1cnccc1N1C[C@@H](N)C[C@H](O)C1 [Example 297, 3-Amino-6-(2,6-difluoro-phenyl)-pyridine-2-carboxylic acid (3-amino-5-hydroxy-3,4,5,6-tetrahydro-2H-[1,4′]bipyridinyl-3′-yl)-amide]
IC50 (Pim1 kinase; [2]): < 1 µM
IC50 (Pim2 kinase; read-out: IC50 (μM) PIM2): < 1 µM
IC50 (Pim3 kinase; read-out: IC50 (μM) PIM3): < 1 µM

Nc1ccc(-c2cncc3ccccc23)nc1C(=O)Nc1cnccc1N1CCC[C@H](N)C1 [Example 692, 3-Amino-6-isoquinolin-4-yl-pyridine-2-carboxylic acid (3-amino-3,4,5,6-tetrahydro-2H-[1,4′]bipyridinyl-3′-yl)-amide]
IC50 (Pim1 kinase; [1]): < 1 µM
IC50 (Pim2 kinase; read-out: PIM2 IC50): < 1 µM
IC50 (Pim3 kinase; read-out: PIM3 IC50): < 1 µM

CCCOc1ccc(F)c(-c2ccc(N)c(C(=O)Nc3cnccc3-c3cc(C)nc(N)n3)n2)c1F [Example 562, 3-Amino-6-(2,6-difluoro-3-propoxy-phenyl)-pyridine-2-carboxylic acid [4-(2-amino-6-methyl-pyrimidin-4-yl)-pyridin-3-yl]-amide]
IC50 (Pim1 kinase; [1]): < 1 µM
IC50 (Pim2 kinase; read-out: PIM2 IC50): < 1 µM
IC50 (Pim3 kinase; read-out: PIM3 IC50): < 1 µM

Nc1cnc(-c2ccccc2)nc1C(=O)Nc1cnccc1N1CC[C@@H](O)[C@H](N)C1 (stereo in doubt) [Example 670, 5-Amino-2-phenyl-pyrimidine-4-carboxylic acid (3-amino-4-hydroxy-3,4,5,6-tetrahydro-2H-[1,4′]bipyridinyl-3′-yl)-amide]
IC50 (Pim1 kinase; [1]): < 1 µM
IC50 (Pim2 kinase; read-out: PIM2 IC50): < 1 µM
IC50 (Pim3 kinase; read-out: PIM3 IC50): < 1 µM

Nc1ccc(-c2ncccc2Cl)nc1C(=O)Nc1cnccc1N1CCC[C@H](N)C1 [Example 719, 5-Amino-3′-chloro-[2,2′]bi-pyridinyl-6-carboxylic acid (3-amino-3,4,5,6-tetrahydro-2H-[1,4′]bipyridinyl-3′-yl)-amide]
IC50 (Pim1 kinase; [1]): < 1 µM
IC50 (Pim2 kinase; read-out: PIM2 IC50): < 1 µM
IC50 (Pim3 kinase; read-out: PIM3 IC50): < 1 µM

CC(C)NC(=O)c1ccc(F)c(-c2ccc(N)c(C(=O)Nc3cnccc3N3C[C@@H](N)C[C@@H](O)C3)n2)c1 [Example 677, 3-Amino-6-(2-fluoro-5-isopropylcarbamoyl-phenyl)-pyridine-2-carboxylic acid (3-amino-5-hydroxy-3,4,5,6-tetra-hydro-2H-[1,4′]bipyridinyl-3′-yl)-amide]
IC50 (Pim1 kinase; [1]): < 1 µM
IC50 (Pim2 kinase; read-out: PIM2 IC50): < 1 µM
IC50 (Pim3 kinase; read-out: PIM3 IC50): < 1 µM

— patent US20140249135A1, “PIM KINASE INHIBITORS AND METHODS OF THEIR USE” (NOVARTIS AG, priority 2007, published 2014)
